pEC50, pIC50: −log10 of the molar value. Values joined by “and” are separate entries in the source; they are usually repeats but may differ in a detail not shown here. Equal entries are not always repeated.
Assays:
[1] = test system: collagen-induced thrombocyte aggregation in platelet-rich plasma; experiment: Antithrombotic activity: collagen-induced thrombocyte aggregation (Born and Cross); format: cell-based, human (healthy volunteers); settings: Homo sapiens, 10 min, 10 min incubation at 37° C.
Experimental: The thrombocyte aggregation is measured using the Born and Cross method (J. Physiol. 170: 397 (1964)) in platelet-rich plasma taken from healthy volunteers. To inhibit coagulation the blood is mixed with 3.14% sodium citrate in a ratio by volume of 1:10.
The pattern of the decrease in optical density of the platelet suspension is photometrically measured and recorded after the addition of aggregation-triggering substance. The rate of aggregation is concluded from the angle of inclination of the density curve. The point on the curve where there is maximum light transmittance is used to calculate the optical density.
The amount of collagen used is as small as possible but sufficient to produce an irreversible reaction curve. Standard commercial collagen produced by Hormonchemie of Munich is used. Before the addition of the collagen the plasma is incubated for 10 minutes with the substance at 37° C.
From the measurements obtained an EC50 is determined graphically, indicating a 50% change in the optical density in terms of the inhibition of aggregation.

mice = experiment: Acute toxicity, oral, mice; format: in vivo, mouse; settings: observation period 14 days; for animals died: 250 mg/kg single oral dose; for Approximate acute toxicity: single oral dose
Experimental: The acute toxicity of the test substances was determined as a guide on groups of 10 mice after oral administration of a single dose (observation period: 14 days): […]

thromboxane synthetase = biological target: T1, thromboxane synthetase (Homo sapiens, UniProt P24557); experiment: Inhibitory effect on thromboxane synthetase (TXB2 formation from arachidonic acid in human platelets); format: biochemical; settings: inhibition of TXB2 formation, human platelet suspension, 14C-arachidonic acid
T1 construct: endogenous in cells; host or cells: washed human platelets (platelet-rich plasma passed through Sepharose 2B)
T1 sequence (P24557 1-533): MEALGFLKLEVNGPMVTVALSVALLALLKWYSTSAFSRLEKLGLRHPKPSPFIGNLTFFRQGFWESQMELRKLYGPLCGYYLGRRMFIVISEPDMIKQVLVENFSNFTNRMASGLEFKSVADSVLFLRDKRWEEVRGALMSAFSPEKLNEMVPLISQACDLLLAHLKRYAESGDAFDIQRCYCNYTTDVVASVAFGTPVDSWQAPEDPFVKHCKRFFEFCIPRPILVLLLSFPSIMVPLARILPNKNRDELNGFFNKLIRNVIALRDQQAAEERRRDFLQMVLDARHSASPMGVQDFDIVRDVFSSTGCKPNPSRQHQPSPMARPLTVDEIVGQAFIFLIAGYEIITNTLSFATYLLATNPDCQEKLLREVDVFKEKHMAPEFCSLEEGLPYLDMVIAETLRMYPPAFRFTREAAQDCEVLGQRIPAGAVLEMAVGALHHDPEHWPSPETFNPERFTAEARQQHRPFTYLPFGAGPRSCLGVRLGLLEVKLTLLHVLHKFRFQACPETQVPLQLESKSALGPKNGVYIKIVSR
Experimental: Venous human blood is anti-coagulated with 13 mM Na3 citrate and centrifuged for 10 minutes at 170×g. The supernatant platelet-rich plasma is passed through a Sepharose 2B column in order to remove the plasma proteins. Aliquots of the platelet suspension obtained are incubated with the test substance or with a solvent as control for 10 minutes at ambient temperature and after the addition of ^14 C-labelled arachidonic acid incubation is continued for a further 10 minutes. After this has been stopped with 50 μl of citric acid, extraction is carried out 3× with 500 μl of ethyl acetate and the combined extracts are distilled off with nitrogen. The residue is taken up in ethyl acetate, placed on TLC film and separated with chloroform:methanol:glacial acetic acid:water (90:8:1:0.8, v/v/v/v). The dried TLC films are placed on X-ray film for 3 days, the autoradiograms were developed and the active zones were marked on the film using the autoradiograms. After cutting out, the activity is measured in a scintillation counter and the inhibition of the formation of TXB2 is calculated. The IC50 is determined by linear interpolation.

thromboxane = biological target: T2, thromboxane (Homo sapiens, UniProt P21731); experiment: Thromboxane-antagonistic activity: displacement of 3H-labelled ligand on washed human platelets; format: binding; settings: displacement of 3H-ligand, human platelet suspension, 60 min ambient temperature
T2 construct: endogenous in cells; host or cells: washed human platelets (platelet-rich plasma passed through Sepharose 2B)
T2 sequence (P21731 1-343): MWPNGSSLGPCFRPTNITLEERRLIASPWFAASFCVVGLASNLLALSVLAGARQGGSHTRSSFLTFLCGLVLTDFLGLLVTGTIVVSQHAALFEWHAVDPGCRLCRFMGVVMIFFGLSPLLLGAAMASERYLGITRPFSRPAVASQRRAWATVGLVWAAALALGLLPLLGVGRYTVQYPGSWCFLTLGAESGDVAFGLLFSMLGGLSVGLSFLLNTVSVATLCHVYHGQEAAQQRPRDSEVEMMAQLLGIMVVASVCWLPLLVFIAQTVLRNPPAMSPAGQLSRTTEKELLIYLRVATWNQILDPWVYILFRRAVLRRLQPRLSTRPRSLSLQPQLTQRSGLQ
Experimental: Venous human blood is anti-coagulated with 13 mM Na3 citrate and centrifuged for 10 minutes at 170×g. The supernatant platelet-rich plasma is passed through a Sepharose 2B column in order to remove the plasma proteins. Aliquots of the platelet suspension obtained are incubated with the test substance, the ligand (^3 H-labelled) and a marker ([…]) for 60 minutes at ambient temperature and then centrifuged for 20 seconds at 10,000×g. The supernatant is removed and the pellet is dissolved in NaOH. The ^3 H activity in the supernatant corresponds to the free ligand, ^14 C gives the concentration of the marker. ^3 H in the pellet corresponds to the bound ligand whilst ^14 C is used to correct for the ligand in the extracellular space. After the process has been repeated, the displacement curve is determined from the binding values for different concentrations of the test substance and the IC50 is determined.

[2] = test system: bronchospasm induced by arachidonic acid; experiment: Inhibition of bronchospasm induced by arachidonic acid; format: in vivo, guinea-pig; settings: Cavia porcellus, iv; guinea-pigs, injected 10 min before arachidonic acid (0.5-2.0 mg/kg i.v.); graphical extrapolation
Experimental: Guinea-pigs anaesthetised with ethyl urethane and ventilated artificially under pressure limitation are intravenously injected with arachidonic acid (a thromboxane precursor) and the consequent bronchospasms are recorded using a modified form of the method of Konzett and Rossler. The doses of arachidonic acid (0.5-2.0 mg/kg) are selected so as to give a 60% reduction in tidal volume. Increasing doses of test substance B are injected 10 minutes before the arachidonic acid. The percentage inhibition of reduction in tidal volume is determined by comparison of the maximum reduction after the administration of arachidonic acid and the corresponding value after pretreatment with the test substance.

[3] = test system: production of thromboxane and PGE2 in an isolated lung; experiment: Effect on production of thromboxane and PGE2 in an isolated lung; parameters: species or system guinea-pig
Experimental: Guinea-pigs are killed by a blow to the neck, the lungs are rapidly removed and washed with a tyrode solution through the pulmonary artery. The lung is perfused with the same solution (0.5 ml/min.) and ventilated under negative pressure (frequency: 52 breaths per minute, maximum pressure -20 cm H2 O). A 0.1 ml bolus of bradykinin (0.2 μM) is injected via the pulmonary arteria on two occasions, with approximately 60 minutes between boli. From 30 minutes before the second bradykinin injection 1 μM of substance B is continually added to the lung perfusate. The control lungs are perfused without the added substance. The perfusate is collected for 2 minutes be administration of bradykinin and 10 minutes thereafter. The samples are left to stand for 20 minutes at ambient temperature (conversion of thromboxane A2 into B2) and are then frozen at -20° C.
The concentrations of thromboxane B2 and PGE2 are determined by radioimmunoassay.

[4] = test system: lethal effects of endotoxin (E. coli 0111:B4 lipopolysaccharide); experiment: Inhibition of the lethal effects of endotoxin; format: in vivo, rat (male Sprague-Dawley)
Experimental: Male Sprague-Dawley rate are primed by intravenous injection with 0.1 mg/kg of endotoxin (a lipopolysaccharide from E. coli 0111:B4) one week before the main study. In the main study, a potentially lethal dose of E. coli (40 mg/kg) is injected intravenously and the subsequent mortality recorded over an observation period of seven days.
The test animals are given test substance B as a suspension in 0.5% tylose by oral route one hour before and 4, 8, 24 and 48 hours after the second injection of endotoxin.

[5] = 1 mg/kg oral at each dosage time point (1 h before, 4, 8, 24, 48 h after endotoxin)
[6] = 10 mg/kg oral at each dosage time point (1 h before, 4, 8, 24, 48 h after endotoxin)

SMILES | pEC50 [1] | animals died (mice) | Approximate acute toxicity (mice) [mg/kg] | pIC50 (thromboxane synthetase) | pIC50 (thromboxane) | ED50 [2] [µg/kg] | effect on formation of PGE2 (in words) ([3]; 1 μM in lung perfusate) | effect on thromboxane production (in words) ([3]; 1 μM in lung perfusate) | Ratio of mediator release after 2nd / after 1st administration of bradykinin: Thromboxane B2 ([3]; 1 μM in perfusate at time of 2nd bradykinin, individual values, control 1.18, 0.50, 0.84) | Ratio of mediator release after 2nd / after 1st administration of bradykinin: PGE2 ([3]; 1 μM in perfusate at time of 2nd bradykinin, individual values, control 1.28, 1.12, 1.09) | Rats alive/total after 2 days [4, 5] | Rats alive/total after 7 days [4, 5] | Rats alive/total after 2 days [4, 6] | Rats alive/total after 7 days [4, 6]
Cc1ccc(S(=O)(=O)NC2Cc3ccc(C(=CCCCC(=O)O)c4cccnc4)cc3C2)cc1 (stereo not shown) [A] | 6.52 | 0 out of 10 | 250 | 8.52 | 7.64 |  |  |  |  |  |  |  |  | 
O=C(O)CCCC=C(c1ccc(CCNS(=O)(=O)c2ccc(Cl)cc2)cc1)c1cccnc1 [B] | 6.82 | 0 out of 10 | 250 | 9.10 | 7.70 | 8.1 | promoting the formation of PGE2 | hinders thromboxane production | 0.0 | 5.08 and 2.23 | 7/10 | 6/10 | 8/10 | 5/10
O=C(O)CCCCC(c1cccnc1)c1ccc2c(c1)CC(NS(=O)(=O)c1ccc(Cl)cc1)C2 (stereo not shown) [C] | 6.52 | 0 out of 10 | 250 | 8.52 | 7.10 |  |  |  |  |  |  |  |  | 
O=C(O)CCCCC(c1ccc(CCNS(=O)(=O)c2ccc(Cl)cc2)cc1)c1cccnc1 (stereo not shown) [D] | 5.92 | 0 out of 10 | 250 | 9.00 | 7.10 |  |  |  |  |  |  |  |  | 
O=C(O)CCCC=C(c1ccc(CCNS(=O)(=O)c2ccc(C(F)(F)F)cc2)cc1)c1cccnc1 [E] | 7.00 | 0 out of 10 | 250 | 8.22 | 7.55 |  |  |  |  |  |  |  |  | 

— patent US5681961A, “Arylsulphonamides, pharmaceutical compositions containing these compounds and processes for preparing them” (Dr. Karl Thomae GmbH, priority 1989, dated 1997)
